Read-outs that look alike come from different tables or passages of the source.
Columns and labels:
[1] = target: H5N1 virus neuraminidase (Influenza A virus, UniProt Q9Q0U7); assay: biochemical; settings: for inhibition at 6.25 µM / inhibition at 12.5 µM / inhibition at 25 µM / inhibition at 50 µM / inhibition at 100 µM / inhibition at 200 µM / inhibition at 400 µM: read-out: The neuraminidase inhibitory rate (%)
[2] = system: A/Vietnam/1203/2004(H5N1) and A/Goose/Qinghai/59/05(H5N1) pseudotyped viral entry; settings: read-out: IC50 against pseudotyped viral entry; cited from earlier work
[3] = system: A/Duck/Guangdong/212/2004 (H5N1) virus; assay: microbe, parasite or virus in culture; type: cell-based, H5N1 avian influenza virus
[4] = system: H5N1 virus; assay: microbe, parasite or virus in culture; type: cell-based, H5N1 avian influenza virus; settings: Influenza A virus
[5] = system: wild-type A/Thailand/kan353/2004 (H5N1) pseudo-typed virus; assay: microbe, parasite or virus in culture; type: cell-based, H5N1 pseudovirus; settings: Influenza A virus, H5N1, MDCK; for inhibition at 1.56 µM / inhibition at 3.13 µM / inhibition at 6.25 µM / inhibition at 12.5 µM / inhibition at 25 µM / inhibition at 50 µM / inhibition at 100 µM / inhibition at 200 µM: 48 h, read-out: inhibitory rates against pseudotyped virus, Wildtype Strain; for IC50: read-out: IC50 against H5N1 pseudovirus
[6] = system: VSVG pseudovirus; assay: microbe, parasite or virus in culture; type: cell-based, vesicular stomatitis virus (VSVG); settings: for inhibition at 1.56 µM / inhibition at 3.13 µM / inhibition at 6.25 µM / inhibition at 12.5 µM / inhibition at 25 µM / inhibition at 50 µM / inhibition at 100 µM / inhibition at 200 µM: Pseudovirus, MDCK, 48 h, read-out: inhibitory rates, VSVG pseudovirus group
[7] = system: H5N1 virus HA1 (hemagglutination of chicken erythrocytes)
[8] = target: HA protein (Influenza A virus, UniProt Q9Q0U6); assay: biochemical; type: binding, H5N1 virus
[9] = in vitro; settings: dog
[10] = system: MDCK cells; settings: dog
[11] = Influenza A virus, H5N1, MDCK, read-out: Inhibition rates to H5N1 virus (%)
[12] = H5N1, read-out: inhibition rate of viral plaques forming

Chain of H5N1 virus neuraminidase (Q9Q0U7 whole entry, looked up): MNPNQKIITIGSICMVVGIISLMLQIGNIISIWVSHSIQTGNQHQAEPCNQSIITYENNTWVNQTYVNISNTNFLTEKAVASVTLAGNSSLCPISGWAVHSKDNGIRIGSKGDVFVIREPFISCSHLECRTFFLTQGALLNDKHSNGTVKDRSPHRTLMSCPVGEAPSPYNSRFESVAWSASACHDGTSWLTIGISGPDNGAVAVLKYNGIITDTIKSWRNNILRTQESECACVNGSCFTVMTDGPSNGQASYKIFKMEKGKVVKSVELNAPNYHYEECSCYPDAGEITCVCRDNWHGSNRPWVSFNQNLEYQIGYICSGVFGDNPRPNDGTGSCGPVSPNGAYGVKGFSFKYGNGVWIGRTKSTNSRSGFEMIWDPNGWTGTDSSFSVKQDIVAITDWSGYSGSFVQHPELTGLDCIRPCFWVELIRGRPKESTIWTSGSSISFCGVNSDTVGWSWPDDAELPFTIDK
Chain of HA protein (Q9Q0U6 17-568 limits assumed): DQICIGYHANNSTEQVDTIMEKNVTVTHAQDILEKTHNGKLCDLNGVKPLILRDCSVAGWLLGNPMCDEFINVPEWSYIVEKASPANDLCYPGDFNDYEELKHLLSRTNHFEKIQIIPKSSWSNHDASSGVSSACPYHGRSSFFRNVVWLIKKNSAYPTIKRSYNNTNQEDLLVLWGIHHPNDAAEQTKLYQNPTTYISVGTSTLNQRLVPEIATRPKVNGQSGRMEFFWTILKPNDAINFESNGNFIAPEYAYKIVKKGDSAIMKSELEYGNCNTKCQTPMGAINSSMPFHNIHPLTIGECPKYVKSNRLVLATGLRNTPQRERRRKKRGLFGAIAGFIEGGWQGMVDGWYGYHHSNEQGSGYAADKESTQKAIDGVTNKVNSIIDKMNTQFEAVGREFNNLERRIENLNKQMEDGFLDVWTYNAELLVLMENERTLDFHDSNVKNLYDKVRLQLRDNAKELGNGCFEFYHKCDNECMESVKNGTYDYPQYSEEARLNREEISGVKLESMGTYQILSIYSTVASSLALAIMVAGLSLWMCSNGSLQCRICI

Compound: CCOC(=O)C1=C[C@@H](OC(CC)CC)[C@H](NC(C)=O)[C@@H](N)C1 [Osetamivir, reference compound]
- IC50 [1]: 8.87 nM

Compound: CCC(CC)[C@H](NC(C)=O)[C@@H]1[C@H](O)[C@@H](C(=O)O)C[C@H]1N=C(N)N [peramivir, reference compound]
- IC50 ([1]; read-out: IC50 against H5N1 viral NA): 0.668 nM

Compound: CC1CCC2(OC1)OC1CC3C4CC(O)C5CC(OC6OC(CO)C(OC7OC(C)C(O)C(O)C7O)C(O)C6OC6OC(C)C(O)C(O)C6O)CCC5(C)C4CCC3(C)C1C2C (stereo not drawn) [chlorogenin 3-O-β-chacotrioside]
- IC50 [2]: 7.22 to 9.25 µM

Compound: CC1CCC2(OC1)OC1CC3C4CC(O)C5CC(OC6OC(CO)C(OC7OC(C)C(O)C(O)C7O)C(O)C6OC6OC(C)C(O)C(O)C6O)CCC5(C)C4CCC3(C)C1C2C (stereo not drawn) [XC-27-2]
- IC50 ([3]; Influenza A virus, H5N1, MDCK): 12.5 ± 2.27 µM
- inhibition at 0.39 µM [3, 11]: 31.9 ± 4.33%
- inhibition at 0.78 µM [3, 11]: 38.6 ± 0.68%
- inhibition at 1.56 µM [3, 11]: 41.5 ± 2.01%
- inhibition at 3.13 µM [3, 11]: 47.1 ± 5.94%
- inhibition at 6.25 µM [3, 11]: 55.6 ± 3.97%
- inhibition at 12.5 µM [3, 11]: 62.2 ± 0.99%
- inhibition at 25 µM [3, 11]: 71 ± 4.31%
- inhibition at 50 µM [3, 11]: 96.8 ± 1.51%
- inhibition at 40 µM ([4]; H5N1, read-out: inhibition percentage of H5N1 viral plaques forming amounts): 91%
- inhibition at 40 µM [4, 12]: 96%
- inhibition at 1.56 µM [5]: 26.8 ± 9.96%
- inhibition at 3.13 µM [5]: 30.1 ± 12.2%
- inhibition at 6.25 µM [5]: 35.8 ± 12.1%
- inhibition at 12.5 µM [5]: 46.3 ± 6.37%
- inhibition at 25 µM [5]: 47.4 ± 13.2%
- inhibition at 50 µM [5]: 64.9 ± 12.5%
- inhibition at 100 µM [5]: 90.5 ± 2.35%
- inhibition at 200 µM [5]: 95.98 ± 0.68%
- IC50 [5]: 18.5 ± 1.82 µM
- inhibitory effects on the VSVG pseudovirus [6]: no inhibitory effects
- inhibition at 1.56 µM [6]: 2.62 ± 4.57%
- inhibition at 3.13 µM [6]: -3.39 ± 4.64%
- inhibition at 6.25 µM [6]: 0.17 ± 5.78%
- inhibition at 12.5 µM [6]: 1.54 ± 13.9%
- inhibition at 25 µM [6]: 0.46 ± 0.94%
- inhibition at 50 µM [6]: 0.34 ± 6.12%
- inhibition at 100 µM [6]: 6.84 ± 5.83%
- inhibition at 200 µM [6]: 6.52 ± 2.16%
- inhibition activity on NA (in words) [1]: very low inhibition activity
- inhibition at 6.25 µM [1]: 1.09 ± 2.99%
- inhibition at 12.5 µM [1]: 5.75 ± 4.41%
- inhibition at 25 µM [1]: 2.89 ± 8.39%
- inhibition at 50 µM [1]: 10.5 ± 16.5%
- inhibition at 100 µM [1]: 13.3 ± 4.06%
- inhibition at 200 µM [1]: 15.6 ± 2.97%
- inhibition at 400 µM [1]: 32 ± 10%
- inhibitory effects to the hemagglutination reaction induced by the virus HA1 [7]: had not produced inhibitory effects
- Kd [8]: 367 µM
- CC50 [9]: 73.8 ± 0.79 µM

Compound: CC1CCC2(OC1)OC1CC3C4CC(=O)C5CC(OC6OC(CO)C(OC7OC(C)C(O)C(O)C7O)C(O)C6OC6OC(C)C(O)C(O)C6O)CCC5(C)C4CCC3(C)C1C2C (stereo not drawn) [XC-27-1]
- IC50 [3]: 16.8 ± 1.45 µM
- Inhibition rates to H5N1 virus (%) ([3]; 0.39 µM): 27.54±1.11%
- Inhibition rates to H5N1 virus (%) ([3]; 0.78 µM): 31.73±6.04%
- Inhibition rates to H5N1 virus (%) ([3]; 1.56 µM): 37.01±4.82%
- Inhibition rates to H5N1 virus (%) ([3]; 3.13 µM): 40.85±8.91%
- Inhibition rates to H5N1 virus (%) ([3]; 6.25 µM): 46.13±10.59%
- Inhibition rates to H5N1 virus (%) ([3]; 12.5 µM): 55.30±3.74%
- Inhibition rates to H5N1 virus (%) ([3]; 25 µM): 75.06±10.43%
- Inhibition rates to H5N1 virus (%) ([3]; 50 µM): 85.71±5.06%
- inhibition at 40 µM [4, 12]: 95%
- inhibition at 1.56 µM [5]: 33.6 ± 5.25%
- inhibition at 3.13 µM [5]: 38 ± 3.24%
- inhibition at 6.25 µM [5]: 40.7 ± 10.9%
- inhibition at 12.5 µM [5]: 49 ± 11.7%
- inhibition at 25 µM [5]: 60.7 ± 3.73%
- inhibition at 50 µM [5]: 64.8 ± 2.96%
- inhibition at 100 µM [5]: 78 ± 2.16%
- inhibition at 200 µM [5]: 95.3 ± 3.6%
- IC50 [5]: 12.8 ± 7.01 µM
- inhibitory effects on the VSVG pseudovirus [6]: no inhibitory effects
- inhibition at 1.56 µM [6]: -0.74 ± 6.43%
- inhibition at 3.13 µM [6]: -1.52 ± 4.89%
- inhibition at 6.25 µM [6]: -4.3 ± 3.47%
- inhibition at 12.5 µM [6]: 3.54 ± 4.16%
- inhibition at 25 µM [6]: 0.83 ± 6.72%
- inhibition at 50 µM [6]: 3.97 ± 5.2%
- inhibition at 100 µM [6]: 4.8 ± 4.97%
- inhibition at 200 µM [6]: 4.75 ± 3.18%
- inhibition activity on NA (in words) [1]: very low inhibition activity
- inhibition at 6.25 µM [1]: 6.57 ± 6.89%
- inhibition at 12.5 µM [1]: 0.18 ± 8.13%
- inhibition at 25 µM [1]: -6.95 ± 12.7%
- inhibition at 50 µM [1]: 5.37 ± 14.4%
- inhibition at 100 µM [1]: 6.45 ± 14.9%
- inhibition at 200 µM [1]: 7.07 ± 9.83%
- inhibition at 400 µM [1]: 24.5 ± 8.38%
- inhibitory effects to the hemagglutination reaction induced by the virus HA1 [7]: had not produced inhibitory effects
- Kd [8]: 257 µM
- CC50 [10]: 1247 ± 1.16 µM
- in vitro cytotoxicity decreased (fold) than that of XC-27-2 [10]: 16 fold

Compound: NC(=O)c1ncn([C@@H]2O[C@H](CO)[C@@H](O)[C@H]2O)n1 [ribavirin, reference compound]
- IC50 ([3]; Influenza A virus, H5N1, MDCK): 37.2 ± 1.6 µM
- CC50 [9]: 132 ± 0.87 µM

Compound: CC1CCC2(OC1)OC1CC3C4CC(=O)C5CC(OC6OC(CO)C(OC7OC(C)C(O)C(O)C7O)C(O)C6OC6OC(C)C(O)C(O)C6O)CCC5(C)C4CCC3(C)C1C2C (stereo not drawn) [UA-Nu-ph-5]
- Inhibition rates to H5N1 virus (%) ([3]; 0.39 µM): 0%
- Inhibition rates to H5N1 virus (%) ([3]; 0.78 µM): 10.75±2.01%
- Inhibition rates to H5N1 virus (%) ([3]; 1.56 µM): 10.78±3.11%
- Inhibition rates to H5N1 virus (%) ([3]; 3.13 µM): 16.51±6.34%
- Inhibition rates to H5N1 virus (%) ([3]; 50 µM): 65.30±4.73%
- IC50 ([3]; Influenza A virus, H5N1, MDCK): 15.6 ± 2.4 µM
- inhibition at 6.25 µM [3, 11]: 35 ± 10.8%
- inhibition at 12.5 µM [3, 11]: 47.1 ± 1.63%
- inhibition at 25 µM [3, 11]: 61.7 ± 5.4%
- inhibition at 100 µM [3, 11]: 79.1 ± 3.27%
- CC50 [10]: 127 ± 1.7 µM

Reference: publication PMC7150989 (Viruses, 2020)
